{
  "source": "patent US7429482B2",
  "about": "“Screening tools for discovery of novel anabolic agents” (United States of America as represented by the Department …, priority 2005, dated 2008)",
  "key": {"[1]": {"tested_on": "junB", "assay": "Chronic denervation: junB mRNA in gastrocnemius (qPCR)", "type": "in vivo, rat", "method": "(§1) Male Wistar rats weighing 200-250 gm (Taconic Farms, Germantown, N.Y.) were provided food and water ad libitum and were housed in a temperature and humidity controlled environment providing a 12:12 hour day-night cycle. For surgical procedures, animals were anesthetized with ketamine/xylazine. The left sciatic nerve was exposed by blunt dissection, and a 1 to 2 mm piece of this nerve was excised just below the level of the femoral head. A sham surgery was performed on the right hind limb in which the sciatic nerve was exposed but was not transected. Twenty eight days later, animals were anesthetized, and Alzet pumps were implanted subcutaneously on the back. […] Testosterone levels after replacement were approximately 15 nM, a high-normal range for rats of this age. […]\n(§2) Total RNA was extracted from skeletal muscle (20 mg) by homogenization in guanidine thiocyanate using a Polytron followed by extraction of total RNA with phenol-chloroform as described by (Chomczynski and Sacchi, Anal Biochem 162: 156-159, 1987). […] Total RNA was eluted and quantified by absorbance at 260 nm. […] Levels of gene expression in the denervated muscle were expressed as fold induction relative to muscle from the sham-denervated leg of animals administered vehicle. […] Fold-induction was determined using the 2^−ΔΔCt method, using expression of 18S RNA as the normalization control. […]"}, "[2]": {"assay": "Acute denervation (0-14 days): muscle weights", "type": "in vivo", "conditions": "rat", "method": "(§3) Male Wistar rats weighing 250 gm (Taconic Farms, Germantown, N.Y.) were provided food and water ad libitum and were housed in a temperature and humidity controlled environment providing a 12:12 hour day-night cycle. For surgical procedures, animals were anesthetized with ketamine/xylazine. The left sciatic nerve was exposed by blunt dissection, and a 1 to 2 mm piece of this nerve was excised just below the level of the femoral head. A sham surgery was performed on the right hind limb in which the sciatic nerve was exposed but was not transected. Model 2002 Alzet pumps were implanted subcutaneously on the back. […] A pellet containing 15 mg of testosterone (Innovative Research of America, Sarasota, Fla.) administered as a continuous infusion (5 mg/wk), or a pellet containing placebo, was inserted into a subcutaneous pouch. […] Because testosterone is known to have anabolic actions (Ferrando et al., Am J Physiol Endocrinol Metab 282: E601-E607, 2002; Mauras et al., J Clin Endocrinol Metab 83: 1886-1892, 1998; Urban et al., Am J Physiol 269: E820-E826, 1995), reductions in levels of this hormone could affect muscle mass and confound interpretation of the results. Animals were euthanized 14 days later by inhalation of carbon dioxide. Following removal of blood from the left ventricle for determination of serum testosterone concentration by radioimmunoassay (MP Biomedicals, Costa Mesa, Calif.), soleus, extensor digitorum longus (EDL), gastrocnemius and plantaris muscles were excised and weighed, then were flash frozen on dry ice and stored at −80° C."}, "[3]": {"assay": "Chronic denervation: gastrocnemius muscle weights", "type": "in vivo, rat", "method": "(§4) Male Wistar rats weighing 200-250 gm (Taconic Farms, Germantown, N.Y.) were provided food and water ad libitum and were housed in a temperature and humidity controlled environment providing a 12:12 hour day-night cycle. For surgical procedures, animals were anesthetized with ketamine/xylazine. The left sciatic nerve was exposed by blunt dissection, and a 1 to 2 mm piece of this nerve was excised just below the level of the femoral head. A sham surgery was performed on the right hind limb in which the sciatic nerve was exposed but was not transected. Twenty eight days later, animals were anesthetized, and Alzet pumps were implanted subcutaneously on the back. […] Testosterone levels after replacement were approximately 15 nM, a high-normal range for rats of this age. Animals were sacrificed 3, 7 or 28 days after implantation of the miniosmotic pumps by inhalation of carbon dioxide. Gastrocnemius muscles were excised and weighed, then flash frozen on dry ice and stored at −80° C."}, "[4]": {"tested_on": "myostatin", "assay": "Acute denervation: myostatin mRNA in EDL and soleus (qPCR)", "type": "in vivo, rat", "method": "as §3, with “Following removal of blood from the left ventricle for determination of serum testosterone concentration by radioimmunoassay (MP Biomedicals, Costa Mesa, Calif.), soleus, extensor digitorum longus (EDL), gastrocnemius and plantaris muscles were excised and weighed, then were flash frozen on dry ice and stored at −80° C.” left out\n(§5) Total RNA was extracted from skeletal muscle (20 mg) by homogenization in guanidine thiocyanate using a Polytron followed by extraction using phenol-chloroform (Chomczynski and Sacchi, Anal Biochem 162: 156-159, 1987). […] Total RNA was then eluted and quantified by absorbance at 260 nm. […] Levels of gene expression in the denervated muscle were expressed as fold induction relative to muscle from the sham-denervated leg of animals administered vehicle. […] Fold-induction was determined using the 2^−ΔΔCt method, using expression of 18S RNA as the normalization control. […]"}, "[5]": {"tested_on": "MuRF1", "assay": "Acute denervation: MuRF1 mRNA in EDL and soleus (qPCR)", "type": "in vivo, rat", "conditions": "nandrolone 1.5 mg/kg/wk 14 days", "method": "as §3, with “Following removal of blood from the left ventricle for determination of serum testosterone concentration by radioimmunoassay (MP Biomedicals, Costa Mesa, Calif.), soleus, extensor digitorum longus (EDL), gastrocnemius and plantaris muscles were excised and weighed, then were flash frozen on dry ice and stored at −80° C.” left out\nas §5"}, "[6]": {"tested_on": "GADD45", "assay": "Acute denervation: GADD45 mRNA in EDL and soleus (qPCR)", "type": "in vivo, rat", "conditions": "significant", "method": "as §1, with “250” for “200-250”, “Model 2002” for “Twenty eight days later, animals were anesthetized, and”, “A pellet containing” for “Testosterone levels after replacement were approximately”, “mg of testosterone (Innovative Research of America, Sarasota, Fla.) administered as” for “nM,”, “continuous infusion (5 mg/wk), or a pellet containing placebo, was inserted into a subcutaneous pouch.” for “high-normal range for rats of this age.”\nas §5"}, "[7]": {"tested_on": "IGFBP-3", "assay": "Chronic denervation: IGFBP-3 mRNA in gastrocnemius (qPCR)", "type": "in vivo, rat", "method": "as §1, §2"}, "[8]": {"tested_on": "MuRF1", "assay": "Chronic denervation: MuRF1 mRNA in gastrocnemius (qPCR)", "type": "in vivo, rat", "conditions": "for reduction of MuRF1 expression: denervated muscle", "method": "as §4\n(§6) Total RNA was extracted from skeletal muscle (20 mg) by homogenization in guanidine thiocyanate using a Polytron followed by extraction of total RNA with phenol-chloroform as described by (Chomczynski and Sacchi, Anal Biochem 162: 156-159, 1987). Total RNA was further enriched using RNAeasy minicolumns (Qiagen, Valencia, Calif.). This procedure included digestion of contaminating DNA on the column with RNAse-free DNAse (Qiagen). Total RNA was eluted and quantified by absorbance at 260 nm. One μg of total RNA was used to prepare a cDNA library by reverse transcription (High Capacity cDNA Archive Kit, Applied Biosystems). Libraries were diluted 25-fold with water. Real time PCR was performed Taqman 2×PCR buffer (Applied Biosystems) using an Applied Biosystems 7500 thermocycler. Levels of gene expression in the denervated muscle were expressed as fold induction relative to muscle from the sham-denervated leg of animals administered vehicle. […] Fold-induction was determined using the 2^−ΔΔCt method, using expression of 18S RNA as the normalization control. […]"}, "[9]": {"tested_on": "IGFBP-5", "assay": "Chronic denervation: IGFBP-5 mRNA in gastrocnemius (qPCR)", "type": "in vivo, rat", "method": "as §4, §6"}, "[10]": {"target": "GR", "conditions": "Danhaive and Rousseau 1986; cited from earlier work"}},
  "data": [
    {"smiles": "C[C@]12CC[C@H]3[C@@H](CCC4=CC(=O)CC[C@@H]43)[C@@H]1CC[C@@H]2O", "note": "[nandrolone]", "values": [
      {"measurement": "junB expression", "setting": "[1]; denervated muscle, 3 to 28 days after starting infusion", "value": "tended to reduce"},
      {"measurement": "junB expression", "setting": "[1]; sham-denervated muscle", "value": "no effect"},
      {"measurement": "weights of muscles from sham-transected limbs", "setting": "[2]; nandrolone 1.5 mg/kg/wk 14 days + testosterone replacement, not statistically significant", "value": "tended to be increased"},
      {"measurement": "weights of muscles from the denervated limb versus vehicle", "setting": "[2]; nandrolone 1.5 mg/kg/wk, 14 days after sciatic transection", "value": "not significantly different"},
      {"measurement": "effect on atrophy", "setting": "[2]; nandrolone 7.5 or 37.5 mg/kg/week, same protocol", "value": "No effect"},
      {"measurement": "weights of denervated muscles versus vehicle", "setting": "[3]; after 3 days of nandrolone (31 days)", "value": "similar"},
      {"measurement": "increase in mass of muscles in the normal limb", "setting": "[3]; nandrolone 0.75 mg/kg/wk plus testosterone from day 28, not significant", "value": "2-5%"},
      {"measurement": "myostatin expression", "setting": "[4]; denervated EDL", "value": "appeared to reduce"},
      {"measurement": "myostatin expression", "setting": "[4]; sham-denervated EDL", "value": "significantly reduced"},
      {"measurement": "myostatin expression", "setting": "[4]; soleus", "value": "did not appreciably alter"},
      {"measurement": "MuRF1 expression", "setting": "[5]; denervated EDL", "value": "significantly reduced"},
      {"measurement": "MuRF1 expression", "setting": "[5]; denervated soleus", "value": "significantly decreased"},
      {"measurement": "MuRF1 expression", "setting": "[5]; sham-denervated soleus or EDL", "value": "did not significantly affect"},
      {"measurement": "reduction in GADD45 expression", "setting": "[6]; denervated EDL", "value": 21, "unit": "%"},
      {"measurement": "decrease in GADD45 expression", "setting": "[6]; denervated soleus", "value": 40, "unit": "%"},
      {"measurement": "IGF-BP-3 expression", "setting": "[7]; denervated muscle, 56-days", "value": "significantly reduced"},
      {"measurement": "IGFBP-3 expression", "setting": "[7]; sham-denervated muscle", "value": "did not appreciably alter"},
      {"measurement": "reduction of MuRF1 expression", "setting": "[8]; 7-days administration", "value": 31, "unit": "%"},
      {"measurement": "reduction of MuRF1 expression", "setting": "[8]; 28-days administration", "value": 37, "unit": "%"},
      {"measurement": "MuRF1 expression", "setting": "[8]; muscle of sham-denervated hindlimbs", "value": "no effect"},
      {"measurement": "IGFBP-5 expression", "setting": "[9]; denervated muscle, 56-days", "value": "tended to reduce"},
      {"measurement": "IGFBP-5 expression", "setting": "[9]; denervated muscle, any time tested", "value": "did not significantly alter"},
      {"measurement": "IGFBP-5 expression", "setting": "[9]; sham-denervated muscle", "value": "did not appreciably alter"}
    ]},
    {"smiles": "C[C@]12CC[C@H]3[C@@H](CCC4=CC(=O)CC[C@@]43C)[C@@H]1CC[C@@H]2O", "note": "[testosterone]", "values": [
      {"measurement": "Kd", "setting": "[10]", "value": "~200", "unit": "nM"}
    ]}
  ]
}
